# In PubChem BioAssay (NCI):
#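 Test compounds were applied to cells in 96-well plates for 48 hours at 5 doses. TGI marks complete inhibition of growth.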
# Legend:
# Assay in all cases: DTP human tumour cell line panel, 48 h
# 786-0 renal = tested on: 786-0 renal
# A498 renal = tested on: A498 renal
# A549 NSCLC = tested on: A549 NSCLC
# ACHN renal = tested on: ACHN renal
# BT-549 breast = tested on: BT-549 breast
# CAKI-1 renal = tested on: CAKI-1 renal
# CCRF-CEM leukemia = tested on: CCRF-CEM leukemia
# COLO 205 colon = tested on: COLO 205 colon
# DU-145 prostate = tested on: DU-145 prostate
# EKVX NSCLC = tested on: EKVX NSCLC
# HCC-2998 colon = tested on: HCC-2998 colon
# HCT-116 colon = tested on: HCT-116 colon
# HCT-15 colon = tested on: HCT-15 colon
# HOP-62 NSCLC = tested on: HOP-62 NSCLC
# HOP-92 NSCLC = tested on: HOP-92 NSCLC
# HT29 colon = tested on: HT29 colon
# IGROV1 ovarian = tested on: IGROV1 ovarian
# K-562 leukemia = tested on: K-562 leukemia
# KM12 colon = tested on: KM12 colon
# LOX IMVI melanoma = tested on: LOX IMVI melanoma
# M14 melanoma = tested on: M14 melanoma
# MALME-3M melanoma = tested on: MALME-3M melanoma
# MCF7 breast = tested on: MCF7 breast
# MDA-MB-231 breast = tested on: MDA-MB-231 breast
# MDA-MB-435 = tested on: MDA-MB-435
# MDA-N = tested on: MDA-N
# MOLT-4 leukemia = tested on: MOLT-4 leukemia
# NCI-H226 lung = tested on: NCI-H226 lung
# NCI-H23 lung = tested on: NCI-H23 lung
# NCI-H460 lung = tested on: NCI-H460 lung
# NCI-H522 lung = tested on: NCI-H522 lung
# NCI/ADR-RES ovarian = tested on: NCI/ADR-RES ovarian
# OVCAR-3 ovarian = tested on: OVCAR-3 ovarian
# OVCAR-4 ovarian = tested on: OVCAR-4 ovarian
# OVCAR-5 ovarian = tested on: OVCAR-5 ovarian
# OVCAR-8 ovarian = tested on: OVCAR-8 ovarian
# PC-3 prostate = tested on: PC-3 prostate
# RPMI-8226 leukemia = tested on: RPMI-8226 leukemia
# RXF 393 renal = tested on: RXF 393 renal
# SF-268 CNS = tested on: SF-268 CNS
# SF-295 CNS = tested on: SF-295 CNS
# SF-539 CNS = tested on: SF-539 CNS
# SK-MEL-2 melanoma = tested on: SK-MEL-2 melanoma
# SK-MEL-28 melanoma = tested on: SK-MEL-28 melanoma
# SK-MEL-5 melanoma = tested on: SK-MEL-5 melanoma
# SK-OV-3 ovarian = tested on: SK-OV-3 ovarian
# SN12C renal = tested on: SN12C renal
# SNB-19 CNS = tested on: SNB-19 CNS
# SNB-75 CNS = tested on: SNB-75 CNS
# SR leukemia = tested on: SR leukemia
# SW-620 colon = tested on: SW-620 colon
# T-47D breast = tested on: T-47D breast
# TK-10 renal = tested on: TK-10 renal
# U251 CNS = tested on: U251 CNS
# UACC-257 melanoma = tested on: UACC-257 melanoma
# UACC-62 melanoma = tested on: UACC-62 melanoma
# UO-31 renal = tested on: UO-31 renal
# HL-60(TB) leukemia = tested on: HL-60(TB) leukemia
smiles,measurement,setting,value
O=C(CCC1CCCCC1)NCc1ccc(C(=O)O)cc1,TGI,786-0 renal,> 100 µM
same,TGI,A498 renal,> 100 µM
same,TGI,A549 NSCLC,> 100 µM
same,TGI,ACHN renal,> 100 µM
same,TGI,BT-549 breast,> 100 µM
same,TGI,CAKI-1 renal,> 100 µM
same,TGI,CCRF-CEM leukemia,> 100 µM
same,TGI,COLO 205 colon,> 100 µM
same,TGI,DU-145 prostate,> 100 µM
same,TGI,EKVX NSCLC,> 100 µM
same,TGI,HCC-2998 colon,> 100 µM
same,TGI,HCT-116 colon,> 100 µM
same,TGI,HCT-15 colon,> 100 µM
same,TGI,HOP-62 NSCLC,> 100 µM
same,TGI,HOP-92 NSCLC,> 100 µM
same,TGI,HT29 colon,> 100 µM
same,TGI,IGROV1 ovarian,> 100 µM
same,TGI,K-562 leukemia,> 100 µM
same,TGI,KM12 colon,> 100 µM
same,TGI,LOX IMVI melanoma,> 100 µM
same,TGI,M14 melanoma,> 100 µM
same,TGI,MALME-3M melanoma,> 100 µM
same,TGI,MCF7 breast,> 100 µM
same,TGI,MDA-MB-231 breast,> 100 µM
same,TGI,MDA-MB-435,> 100 µM
same,TGI,MDA-N,> 100 µM
same,TGI,MOLT-4 leukemia,> 100 µM
same,TGI,NCI-H226 lung,> 100 µM
same,TGI,NCI-H23 lung,> 100 µM
same,TGI,NCI-H460 lung,> 100 µM
same,TGI,NCI-H522 lung,> 100 µM
same,TGI,NCI/ADR-RES ovarian,> 100 µM
same,TGI,OVCAR-3 ovarian,> 100 µM
same,TGI,OVCAR-4 ovarian,> 100 µM
same,TGI,OVCAR-5 ovarian,> 100 µM
same,TGI,OVCAR-8 ovarian,> 100 µM
same,TGI,PC-3 prostate,> 100 µM
same,TGI,RPMI-8226 leukemia,> 100 µM
same,TGI,RXF 393 renal,> 100 µM
same,TGI,SF-268 CNS,> 100 µM
same,TGI,SF-295 CNS,> 100 µM
same,TGI,SF-539 CNS,> 100 µM
same,TGI,SK-MEL-2 melanoma,> 100 µM
same,TGI,SK-MEL-28 melanoma,> 100 µM
same,TGI,SK-MEL-5 melanoma,> 100 µM
same,TGI,SK-OV-3 ovarian,> 100 µM
same,TGI,SN12C renal,> 100 µM
same,TGI,SNB-19 CNS,> 100 µM
same,TGI,SNB-75 CNS,> 100 µM
same,TGI,SR leukemia,> 100 µM
same,TGI,SW-620 colon,> 100 µM
same,TGI,T-47D breast,> 100 µM
same,TGI,TK-10 renal,> 100 µM
same,TGI,U251 CNS,> 100 µM
same,TGI,UACC-257 melanoma,> 100 µM
same,TGI,UACC-62 melanoma,> 100 µM
same,TGI,UO-31 renal,> 100 µM
CO/C(=N\N=C\c1ccccc1F)c1ccncc1,TGI,786-0 renal,> 10 µM
same,TGI,A549 NSCLC,> 10 µM
same,TGI,ACHN renal,> 10 µM
same,TGI,BT-549 breast,> 10 µM
same,TGI,CAKI-1 renal,> 10 µM
same,TGI,CCRF-CEM leukemia,> 10 µM
same,TGI,COLO 205 colon,> 10 µM
same,TGI,DU-145 prostate,> 10 µM
same,TGI,EKVX NSCLC,> 10 µM
same,TGI,HCC-2998 colon,> 10 µM
same,TGI,HCT-116 colon,> 10 µM
same,TGI,HCT-15 colon,> 10 µM
same,TGI,HL-60(TB) leukemia,> 10 µM
same,TGI,HOP-62 NSCLC,> 10 µM
same,TGI,HOP-92 NSCLC,> 10 µM
same,TGI,HT29 colon,> 10 µM
same,TGI,K-562 leukemia,> 10 µM
same,TGI,KM12 colon,> 10 µM
same,TGI,LOX IMVI melanoma,> 10 µM
same,TGI,M14 melanoma,> 10 µM
same,TGI,MALME-3M melanoma,> 10 µM
same,TGI,MCF7 breast,> 10 µM
same,TGI,MDA-MB-231 breast,> 10 µM
same,TGI,MDA-MB-435,> 10 µM
same,TGI,MDA-N,> 10 µM
same,TGI,MOLT-4 leukemia,> 10 µM
same,TGI,NCI-H226 lung,> 10 µM
same,TGI,NCI-H23 lung,> 10 µM
same,TGI,NCI-H460 lung,> 10 µM
same,TGI,NCI-H522 lung,> 10 µM
same,TGI,NCI/ADR-RES ovarian,> 10 µM
same,TGI,OVCAR-3 ovarian,> 10 µM
same,TGI,OVCAR-4 ovarian,> 10 µM
same,TGI,OVCAR-5 ovarian,> 10 µM
same,TGI,OVCAR-8 ovarian,> 10 µM
same,TGI,PC-3 prostate,> 10 µM
same,TGI,RPMI-8226 leukemia,> 10 µM
same,TGI,RXF 393 renal,> 10 µM
same,TGI,SF-268 CNS,> 10 µM
same,TGI,SF-295 CNS,> 10 µM
same,TGI,SK-MEL-2 melanoma,> 10 µM
same,TGI,SN12C renal,> 10 µM
same,TGI,SNB-19 CNS,> 10 µM
same,TGI,SR leukemia,> 10 µM
same,TGI,SW-620 colon,> 10 µM
same,TGI,T-47D breast,> 10 µM
same,TGI,TK-10 renal,> 10 µM
same,TGI,U251 CNS,> 10 µM
same,TGI,UACC-257 melanoma,> 10 µM
same,TGI,UO-31 renal,> 10 µM
O=C(O)C(CCc1ccccc1)N1C(=O)c2ccccc2C1=O (stereo unspecified),TGI,786-0 renal,> 100 µM
same,TGI,A498 renal,> 100 µM
same,TGI,A549 NSCLC,> 100 µM
same,TGI,ACHN renal,> 100 µM
same,TGI,BT-549 breast,> 100 µM
same,TGI,CAKI-1 renal,> 100 µM
same,TGI,CCRF-CEM leukemia,> 100 µM
same,TGI,COLO 205 colon,> 100 µM
same,TGI,DU-145 prostate,> 100 µM
same,TGI,EKVX NSCLC,> 100 µM
same,TGI,HCT-116 colon,> 100 µM
same,TGI,HCT-15 colon,> 100 µM
same,TGI,HL-60(TB) leukemia,> 100 µM
same,TGI,HOP-62 NSCLC,> 100 µM
same,TGI,HOP-92 NSCLC,> 100 µM
same,TGI,HT29 colon,> 100 µM
same,TGI,IGROV1 ovarian,> 100 µM
same,TGI,K-562 leukemia,> 100 µM
same,TGI,KM12 colon,> 100 µM
same,TGI,LOX IMVI melanoma,> 100 µM
same,TGI,M14 melanoma,> 100 µM
same,TGI,MCF7 breast,> 100 µM
same,TGI,MDA-MB-231 breast,> 100 µM
same,TGI,MDA-MB-435,> 100 µM
same,TGI,MDA-N,> 100 µM
same,TGI,MOLT-4 leukemia,> 100 µM
same,TGI,NCI-H226 lung,> 100 µM
same,TGI,NCI-H23 lung,> 100 µM
same,TGI,NCI-H460 lung,> 100 µM
same,TGI,NCI/ADR-RES ovarian,> 100 µM
same,TGI,OVCAR-3 ovarian,> 100 µM
same,TGI,OVCAR-4 ovarian,> 100 µM
same,TGI,OVCAR-5 ovarian,> 100 µM
same,TGI,OVCAR-8 ovarian,> 100 µM
same,TGI,PC-3 prostate,> 100 µM
same,TGI,RPMI-8226 leukemia,> 100 µM
same,TGI,RXF 393 renal,> 100 µM
same,TGI,SF-295 CNS,> 100 µM
same,TGI,SF-539 CNS,> 100 µM
same,TGI,SK-MEL-2 melanoma,> 100 µM
same,TGI,SK-MEL-28 melanoma,> 100 µM
same,TGI,SK-MEL-5 melanoma,> 100 µM
same,TGI,SK-OV-3 ovarian,> 100 µM
same,TGI,SN12C renal,> 100 µM
same,TGI,SNB-19 CNS,> 100 µM
same,TGI,SNB-75 CNS,> 100 µM
same,TGI,SR leukemia,> 100 µM
same,TGI,SW-620 colon,> 100 µM
same,TGI,T-47D breast,> 100 µM
same,TGI,TK-10 renal,> 100 µM
same,TGI,U251 CNS,> 100 µM
same,TGI,UACC-257 melanoma,> 100 µM
same,TGI,UACC-62 melanoma,> 100 µM
same,TGI,UO-31 renal,> 100 µM
